{"source": "patent US9518018B2", "about": "“3-alkoxy, thioalkyl and amino-4-amino-6-(substituted)picolinates and their use as herbicides” (Dow AgroSciences LLC, priority 2011, dated 2016)", "test_in_all_cases": "In-water applied herbicidal activity in transplanted paddy rice", "format_in_all_cases": "in vivo", "key": {"[1]": {"system": "CYPDI = Cyperus difformis L. (small-flower flatsedge)", "description": "(§1) Weed seeds or nutlets of the desired test plant species were planted in puddled soil (mud) prepared by mixing a non-sterilized mineral soil (28 percent silt, 18 percent clay, and 54 percent sand, with a pH of about 7.3 to 7.8 and an organic matter content of about 1.0 percent) and water at a ratio of 100 kilograms (kg) of soil to 19 liters (L) of water. The prepared mud was dispensed in 250 mL aliquots into 480 mL non-perforated plastic pots with a surface area of 86.59 cm^2 leaving a headspace of 2.5 to 3 cm in each pot. Rice seeds were planted in Sun Gro MetroMix 306 planting mixture, which typically has a pH of 6.0 to 6.8 and an organic matter content of about 30 percent, in plastic plug trays. Seedlings at the second or third leaf stage of growth were transplanted into 650 mL of mud contained in 960 mL non-perforated plastic pots with a surface area of 86.59 cm^2 four days prior to herbicide application. The paddy was created by filling the 2.5 to 3 cm headspace of the pots with water. When required to ensure good germination and healthy plants, a fungicide treatment and/or other chemical or physical treatment was applied. The plants were grown for 4-14 d in a greenhouse with an approximate 14-h photoperiod which was maintained at about 29° C. during the day and 26° C. during the night. Nutrients were added as Osmocote (17:6:10, Nitrogen:Phosphorus:Potassium (N:P:K)+minor nutrients) at 2 grams (g) per cup. Water was added on a regular basis to maintain the paddy flood, and supplemental lighting was provided with overhead metal halide 1000-Watt lamps as necessary. The plants were employed for testing when they reached the second or third true leaf stage. Treatments consisted of compounds 45, 34, and 66. For technical grade compounds, a weighed amount, determined by the highest rate to be tested, was placed in an individual 120 mL glass vial and was dissolved in 20 mL of acetone to obtain concentrated stock solutions. […] The concentrated stock solutions obtained were diluted with 20 mL of an aqueous mixture containing 2.5% Agri-dex crop oil concentrate (v/v). Applications were made by injecting an appropriate amount of the stock solution into the aqueous layer of the paddy. Control plants were treated in the same manner with the solvent blank. All treated plant material received the same concentration of acetone and crop oil concentrate. The treated plants and control plants were placed in a greenhouse as described above and water was added as needed to maintain a paddy flood. After approximately 3 weeks, the condition of the test plants, compared with that of the untreated plants, was determined visually and scored on a scale of 0 to 100 percent where 0 corresponds to no injury and 100 corresponds to complete kill. By applying the well-accepted probit analysis as described by J. Berkson in Journal of the […], 48, 565 (1953) and by D. Finney in “Probit Analysis” Cambridge University Press (1952) or by plotting the mean data and fitting a logarithmic curve to the portion of the data where there was a dose response using Microsoft Excel®, the above data can be used to calculate GR50 and GR90 values, which are defined as growth reduction factors that correspond to the effective dose of herbicide required to kill or control 50 percent or 90 percent, respectively, of a target plant."}, "[2]": {"system": "ORYSA = Oryza sativa ‘Wells’ (rice)", "description": "as §1"}, "[3]": {"system": "SCPJU = Scirpus juncoides ROXB. (Japanese bulrush)", "description": "as §1"}, "[4]": {"system": "ORYSA = Oryza sativa ‘M202’ (rice)", "description": "as §1"}, "[5]": {"system": "ECHCG = Echinochloa crus-galli (L.) P.BEAUV. (barnyardgrass)", "description": "as §1"}, "[6]": {"system": "MOOVA = Monochoria vaginalis (BURM.f.) C.PRESL ex KUNTH (monochoria)", "description": "as §1"}, "[7]": {"conditions": "Table 7, dose to kill or control 50 percent, 21 days after application"}, "[8]": {"conditions": "Table 7, dose to kill or control 90 percent, 21 days after application"}}, "data": [{"smiles": "COc1c(C(=O)OCc2ccccc2)nc(-c2ccc(Cl)c(OC)c2F)c(F)c1N", "note": "[Compound 66, benzyl 4-amino-6-(4-chloro-2-fluoro-3-methoxyphenyl)-5-fluoro-3-methoxypicolinate]", "values": [{"measurement": "Mean Visual Injury (%)-21 Days After Application CYPDI", "setting": "[1]; Table 7, 2.19 g ae/ha", "value": 0, "unit": "%"}, {"measurement": "Mean Visual Injury (%)-21 Days After Application CYPDI", "setting": "[1]; Table 7, 4.38 g ae/ha", "value": 48, "unit": "%"}, {"measurement": "Mean Visual Injury (%)-21 Days After Application CYPDI", "setting": "[1]; Table 7, 8.75 g ae/ha", "value": 94, "unit": "%"}, {"measurement": "Mean Visual Injury (%)-21 Days After Application CYPDI", "setting": "[1]; Table 7, 17.5 g ae/ha", "value": 100, "unit": "%"}, {"measurement": "Mean Visual Injury (%)-21 Days After Application CYPDI", "setting": "[1]; Table 7, 35 g ae/ha", "value": 100, "unit": "%"}, {"measurement": "Mean Visual Injury (%)-21 Days After Application CYPDI", "setting": "[1]; Table 7, 70 g ae/ha", "value": 100, "unit": "%"}, {"measurement": "Mean Visual Injury (%)-21 Days After Application CYPDI", "setting": "[1]; Table 7, 140 g ae/ha", "value": 100, "unit": "%"}, {"measurement": "GR50 CYPDI", "setting": "[1]; [7]", "value": 4.5, "unit": "g ae/ha"}, {"measurement": "GR90 CYPDI", "setting": "[1]; [8]", "value": 8.2, "unit": "g ae/ha"}, {"measurement": "Mean Visual Injury (%)-21 Days After Application ORYSA ‘Wells’", "setting": "[2]; Table 7, 8.75 g ae/ha", "value": 0, "unit": "%"}, {"measurement": "Mean Visual Injury (%)-21 Days After Application ORYSA ‘Wells’", "setting": "[2]; Table 7, 17.5 g ae/ha", "value": 0, "unit": "%"}, {"measurement": "Mean Visual Injury (%)-21 Days After Application ORYSA ‘Wells’", "setting": "[2]; Table 7, 35 g ae/ha", "value": 0, "unit": "%"}, {"measurement": "Mean Visual Injury (%)-21 Days After Application ORYSA ‘Wells’", "setting": "[2]; Table 7, 70 g ae/ha", "value": 0, "unit": "%"}, {"measurement": "Mean Visual Injury (%)-21 Days After Application ORYSA ‘Wells’", "setting": "[2]; Table 7, 140 g ae/ha", "value": 5, "unit": "%"}, {"measurement": "GR50 ORYSA ‘Wells’", "setting": "[2]; [7]", "value": ">140", "unit": "g ae/ha"}, {"measurement": "GR90 ORYSA ‘Wells’", "setting": "[2]; [8]", "value": ">140", "unit": "g ae/ha"}, {"measurement": "Mean Visual Injury (%)-21 Days After Application SCPJU", "setting": "[3]; Table 7, 2.19 g ae/ha", "value": 35, "unit": "%"}, {"measurement": "Mean Visual Injury (%)-21 Days After Application SCPJU", "setting": "[3]; Table 7, 4.38 g ae/ha", "value": 78, "unit": "%"}, {"measurement": "Mean Visual Injury (%)-21 Days After Application SCPJU", "setting": "[3]; Table 7, 8.75 g ae/ha", "value": 94, "unit": "%"}, {"measurement": "Mean Visual Injury (%)-21 Days After Application SCPJU", "setting": "[3]; Table 7, 17.5 g ae/ha", "value": 98, "unit": "%"}, {"measurement": "Mean Visual Injury (%)-21 Days After Application SCPJU", "setting": "[3]; Table 7, 35 g ae/ha", "value": 100, "unit": "%"}, {"measurement": "Mean Visual Injury (%)-21 Days After Application SCPJU", "setting": "[3]; Table 7, 70 g ae/ha", "value": 100, "unit": "%"}, {"measurement": "Mean Visual Injury (%)-21 Days After Application SCPJU", "setting": "[3]; Table 7, 140 g ae/ha", "value": 100, "unit": "%"}, {"measurement": "GR50 SCPJU", "setting": "[3]; [7]", "value": 2.8, "unit": "g ae/ha"}, {"measurement": "GR90 SCPJU", "setting": "[3]; [8]", "value": 7.1, "unit": "g ae/ha"}, {"measurement": "Mean Visual Injury (%)-21 Days After Application ORYSA ‘M202’", "setting": "[4]; Table 7, 2.19 g ae/ha", "value": 0, "unit": "%"}, {"measurement": "Mean Visual Injury (%)-21 Days After Application ORYSA ‘M202’", "setting": "[4]; Table 7, 4.38 g ae/ha", "value": 0, "unit": "%"}, {"measurement": "Mean Visual Injury (%)-21 Days After Application ORYSA ‘M202’", "setting": "[4]; Table 7, 8.75 g ae/ha", "value": 0, "unit": "%"}, {"measurement": "Mean Visual Injury (%)-21 Days After Application ORYSA ‘M202’", "setting": "[4]; Table 7, 17.5 g ae/ha", "value": 0, "unit": "%"}, {"measurement": "Mean Visual Injury (%)-21 Days After Application ORYSA ‘M202’", "setting": "[4]; Table 7, 35 g ae/ha", "value": 0, "unit": "%"}, {"measurement": "Mean Visual Injury (%)-21 Days After Application ORYSA ‘M202’", "setting": "[4]; Table 7, 70 g ae/ha", "value": 0, "unit": "%"}, {"measurement": "Mean Visual Injury (%)-21 Days After Application ORYSA ‘M202’", "setting": "[4]; Table 7, 140 g ae/ha", "value": 17, "unit": "%"}, {"measurement": "GR50 ORYSA ‘M202’", "setting": "[4]; [7]", "value": ">140", "unit": "g ae/ha"}, {"measurement": "GR90 ORYSA ‘M202’", "setting": "[4]; [8]", "value": ">140", "unit": "g ae/ha"}, {"measurement": "Mean Visual Injury (%)-21 Days After Application ECHCG", "setting": "[5]; Table 7, 2.19 g ae/ha", "value": 0, "unit": "%"}, {"measurement": "Mean Visual Injury (%)-21 Days After Application ECHCG", "setting": "[5]; Table 7, 4.38 g ae/ha", "value": 3, "unit": "%"}, {"measurement": "Mean Visual Injury (%)-21 Days After Application ECHCG", "setting": "[5]; Table 7, 8.75 g ae/ha", "value": 6, "unit": "%"}, {"measurement": "Mean Visual Injury (%)-21 Days After Application ECHCG", "setting": "[5]; Table 7, 17.5 g ae/ha", "value": 57, "unit": "%"}, {"measurement": "Mean Visual Injury (%)-21 Days After Application ECHCG", "setting": "[5]; Table 7, 35 g ae/ha", "value": 86, "unit": "%"}, {"measurement": "Mean Visual Injury (%)-21 Days After Application ECHCG", "setting": "[5]; Table 7, 70 g ae/ha", "value": 99, "unit": "%"}, {"measurement": "Mean Visual Injury (%)-21 Days After Application ECHCG", "setting": "[5]; Table 7, 140 g ae/ha", "value": 100, "unit": "%"}, {"measurement": "GR50 ECHCG", "setting": "[5]; [7]", "value": 17.4, "unit": "g ae/ha"}, {"measurement": "GR90 ECHCG", "setting": "[5]; [8]", "value": 53.7, "unit": "g ae/ha"}, {"measurement": "Mean Visual Injury (%)-21 Days After Application MOOVA", "setting": "[6]; Table 7, 2.19 g ae/ha", "value": 0, "unit": "%"}, {"measurement": "Mean Visual Injury (%)-21 Days After Application MOOVA", "setting": "[6]; Table 7, 4.38 g ae/ha", "value": 100, "unit": "%"}, {"measurement": "Mean Visual Injury (%)-21 Days After Application MOOVA", "setting": "[6]; Table 7, 8.75 g ae/ha", "value": 100, "unit": "%"}, {"measurement": "Mean Visual Injury (%)-21 Days After Application MOOVA", "setting": "[6]; Table 7, 17.5 g ae/ha", "value": 100, "unit": "%"}, {"measurement": "Mean Visual Injury (%)-21 Days After Application MOOVA", "setting": "[6]; Table 7, 35 g ae/ha", "value": 100, "unit": "%"}, {"measurement": "Mean Visual Injury (%)-21 Days After Application MOOVA", "setting": "[6]; Table 7, 70 g ae/ha", "value": 100, "unit": "%"}, {"measurement": "Mean Visual Injury (%)-21 Days After Application MOOVA", "setting": "[6]; Table 7, 140 g ae/ha", "value": 100, "unit": "%"}, {"measurement": "GR50 MOOVA", "setting": "[6]; [7]", "value": "<4.38", "unit": "g ae/ha"}, {"measurement": "GR90 MOOVA", "setting": "[6]; [8]", "value": "<4.38", "unit": "g ae/ha"}]}]}
